# According to ChEMBL document CHEMBL3085697, “Design and synthesis of aryl sulfonamide-based nonsteroidal mineralocorticoid receptor antagonists” (Bioorg Med Chem Lett, 2013):
# Tests used:
# [1] = Apparent intrinsic clearance in human liver microsomes; type: ADME; conditions: read-out: CLH(app)
# [2] = Lipophilicity, log D of the compound; type: physicochemical; conditions: octanol/water
# [3] = target: T1, Mineralocorticoid receptor (Homo sapiens, UniProt P08235); experiment: Displacement of [3H]aldosterone from GST-tagged human mineralocorticoid receptor ligand binding domain after 4 hrs by liquid scintillation counting
# T1 sequence (P08235 whole entry): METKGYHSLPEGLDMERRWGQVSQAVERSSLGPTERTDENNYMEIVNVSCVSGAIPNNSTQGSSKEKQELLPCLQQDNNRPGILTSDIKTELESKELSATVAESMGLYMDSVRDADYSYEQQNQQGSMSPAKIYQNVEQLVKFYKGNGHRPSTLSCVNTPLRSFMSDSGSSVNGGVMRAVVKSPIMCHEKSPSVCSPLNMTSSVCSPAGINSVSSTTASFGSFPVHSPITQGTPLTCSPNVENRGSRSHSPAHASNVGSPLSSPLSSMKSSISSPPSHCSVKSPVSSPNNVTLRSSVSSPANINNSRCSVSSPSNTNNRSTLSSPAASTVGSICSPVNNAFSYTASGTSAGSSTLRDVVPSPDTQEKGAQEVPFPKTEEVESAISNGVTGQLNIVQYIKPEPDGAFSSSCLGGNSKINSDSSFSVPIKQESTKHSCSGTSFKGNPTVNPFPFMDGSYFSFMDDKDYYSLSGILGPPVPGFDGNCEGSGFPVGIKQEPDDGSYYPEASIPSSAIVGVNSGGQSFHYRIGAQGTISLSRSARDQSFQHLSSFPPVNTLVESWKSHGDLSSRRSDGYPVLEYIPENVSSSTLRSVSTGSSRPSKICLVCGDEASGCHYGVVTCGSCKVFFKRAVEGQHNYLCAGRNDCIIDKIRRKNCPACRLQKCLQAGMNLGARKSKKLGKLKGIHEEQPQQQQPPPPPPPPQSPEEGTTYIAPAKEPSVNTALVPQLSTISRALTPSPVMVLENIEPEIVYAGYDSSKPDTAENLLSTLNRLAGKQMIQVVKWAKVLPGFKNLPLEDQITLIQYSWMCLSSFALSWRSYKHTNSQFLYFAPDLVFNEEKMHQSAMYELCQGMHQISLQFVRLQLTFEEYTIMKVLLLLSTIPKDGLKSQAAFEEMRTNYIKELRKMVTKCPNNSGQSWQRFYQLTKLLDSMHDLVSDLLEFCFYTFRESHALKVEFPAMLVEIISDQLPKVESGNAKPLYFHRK
# [4] = target: T2, Glucocorticoid receptor (Homo sapiens, UniProt P04150); experiment: Displacement of [3H]dexamethasone from GST-tagged human glucocorticoid receptor ligand binding domain after 4 hrs by liquid scintillation counting
# T2 sequence (P04150 whole entry): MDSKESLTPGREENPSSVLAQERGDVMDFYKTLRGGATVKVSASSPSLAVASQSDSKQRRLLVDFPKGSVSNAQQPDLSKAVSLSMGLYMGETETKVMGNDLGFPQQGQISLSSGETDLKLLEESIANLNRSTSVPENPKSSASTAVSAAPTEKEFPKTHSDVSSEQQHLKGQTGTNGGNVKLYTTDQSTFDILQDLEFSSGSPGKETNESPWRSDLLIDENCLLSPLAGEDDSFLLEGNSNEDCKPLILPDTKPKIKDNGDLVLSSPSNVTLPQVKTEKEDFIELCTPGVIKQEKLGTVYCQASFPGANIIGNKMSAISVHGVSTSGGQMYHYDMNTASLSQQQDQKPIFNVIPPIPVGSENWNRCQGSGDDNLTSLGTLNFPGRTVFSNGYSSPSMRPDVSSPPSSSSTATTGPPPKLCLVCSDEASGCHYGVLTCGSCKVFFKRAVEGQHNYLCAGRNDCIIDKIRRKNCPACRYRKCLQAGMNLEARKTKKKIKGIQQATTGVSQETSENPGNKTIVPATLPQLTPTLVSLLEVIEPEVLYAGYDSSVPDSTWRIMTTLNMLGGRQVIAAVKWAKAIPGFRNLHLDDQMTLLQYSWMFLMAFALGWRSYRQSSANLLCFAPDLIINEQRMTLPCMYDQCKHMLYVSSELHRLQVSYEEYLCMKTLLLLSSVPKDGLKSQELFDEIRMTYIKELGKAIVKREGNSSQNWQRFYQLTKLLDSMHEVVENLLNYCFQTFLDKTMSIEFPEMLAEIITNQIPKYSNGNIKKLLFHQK
# [5] = target: CYP2D6 (Homo sapiens, UniProt P10635); experiment: Inhibition of CYP2D6 (unknown origin) at 3 uM; type: ADME
# [6] = system: Hepatocyte; experiment: Apparent intrinsic clearance in human hepatocytes assessed per million cells; type: ADME, cell-based
# [7] = target: CYP3A4 (Homo sapiens, UniProt P08684); experiment: Inhibition of CYP3A4 (unknown origin) at 3 uM; type: ADME
# [8] = target: T3, Androgen receptor (Homo sapiens, UniProt P10275); experiment: Antagonist activity at human androgen receptor ligand binding domain expressed in human Huh7 cells after 16 hrs by luciferase reporter gene assay; type: cell-based, Huh-7
# T3 sequence (P10275 whole entry): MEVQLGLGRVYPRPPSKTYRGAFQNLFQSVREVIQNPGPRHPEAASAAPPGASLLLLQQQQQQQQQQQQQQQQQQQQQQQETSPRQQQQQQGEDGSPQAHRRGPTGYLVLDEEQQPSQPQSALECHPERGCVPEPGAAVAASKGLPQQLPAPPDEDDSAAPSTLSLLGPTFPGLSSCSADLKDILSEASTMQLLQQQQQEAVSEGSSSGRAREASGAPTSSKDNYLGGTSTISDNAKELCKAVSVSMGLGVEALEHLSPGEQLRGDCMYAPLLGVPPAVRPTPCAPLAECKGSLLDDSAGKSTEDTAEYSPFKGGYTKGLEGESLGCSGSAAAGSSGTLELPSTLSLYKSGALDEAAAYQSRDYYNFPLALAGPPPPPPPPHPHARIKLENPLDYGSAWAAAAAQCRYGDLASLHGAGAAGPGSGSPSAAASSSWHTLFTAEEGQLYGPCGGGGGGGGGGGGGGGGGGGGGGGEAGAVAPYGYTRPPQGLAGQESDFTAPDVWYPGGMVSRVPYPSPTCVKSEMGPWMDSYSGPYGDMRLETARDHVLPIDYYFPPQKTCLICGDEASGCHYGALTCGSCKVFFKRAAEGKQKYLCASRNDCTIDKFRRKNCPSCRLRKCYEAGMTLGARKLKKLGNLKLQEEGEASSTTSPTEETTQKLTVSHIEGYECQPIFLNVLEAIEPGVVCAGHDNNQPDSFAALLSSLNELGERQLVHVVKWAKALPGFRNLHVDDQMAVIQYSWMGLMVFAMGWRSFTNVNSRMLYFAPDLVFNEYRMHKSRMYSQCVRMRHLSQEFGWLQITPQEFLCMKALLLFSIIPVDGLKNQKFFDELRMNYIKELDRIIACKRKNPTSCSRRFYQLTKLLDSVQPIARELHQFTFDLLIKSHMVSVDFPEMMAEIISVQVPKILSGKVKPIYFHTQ
# [9] = target: T4, Progesterone receptor (Homo sapiens, UniProt P06401); experiment: Displacement of [3H]progesterone from human His-progesterone receptor B after 4 hrs by liquid scintillation counting
# T4 sequence (P06401 whole entry): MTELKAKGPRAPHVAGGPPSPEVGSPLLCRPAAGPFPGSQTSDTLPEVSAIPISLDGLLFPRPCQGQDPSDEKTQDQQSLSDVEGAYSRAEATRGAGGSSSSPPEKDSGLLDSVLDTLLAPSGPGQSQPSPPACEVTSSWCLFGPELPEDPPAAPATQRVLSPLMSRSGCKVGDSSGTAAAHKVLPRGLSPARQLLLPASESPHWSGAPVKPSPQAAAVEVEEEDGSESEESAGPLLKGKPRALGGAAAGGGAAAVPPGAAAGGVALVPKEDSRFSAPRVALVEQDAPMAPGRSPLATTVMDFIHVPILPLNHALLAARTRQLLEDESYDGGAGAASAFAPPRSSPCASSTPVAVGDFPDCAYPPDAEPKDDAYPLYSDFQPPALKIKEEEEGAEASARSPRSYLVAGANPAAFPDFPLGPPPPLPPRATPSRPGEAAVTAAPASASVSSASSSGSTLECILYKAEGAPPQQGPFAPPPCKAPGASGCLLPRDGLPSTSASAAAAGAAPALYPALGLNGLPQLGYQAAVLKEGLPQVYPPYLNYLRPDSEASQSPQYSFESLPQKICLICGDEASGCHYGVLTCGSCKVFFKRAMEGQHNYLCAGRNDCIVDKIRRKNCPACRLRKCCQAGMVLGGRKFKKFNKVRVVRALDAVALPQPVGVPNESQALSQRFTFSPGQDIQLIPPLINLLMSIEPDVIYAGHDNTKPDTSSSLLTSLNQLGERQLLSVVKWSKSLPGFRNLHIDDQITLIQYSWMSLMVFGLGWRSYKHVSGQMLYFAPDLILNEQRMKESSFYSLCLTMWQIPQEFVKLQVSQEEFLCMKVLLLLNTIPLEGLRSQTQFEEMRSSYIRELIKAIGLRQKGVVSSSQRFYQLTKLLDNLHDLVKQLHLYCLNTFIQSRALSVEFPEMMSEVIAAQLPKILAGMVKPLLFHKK
# [10] = target: T1, Mineralocorticoid receptor; experiment: Antagonist activity at human mineralocorticoid receptor ligand binding domain expressed in human Huh7 cells after 16 hrs by luciferase reporter gene assay in absence of serum; type: cell-based, Huh-7
# [11] = Apparent permeability across dog RRCK cells; type: ADME, cell-based, Canis lupus familiaris, MDCKII-LE; conditions: MDCK
# [12] = target: T1, Mineralocorticoid receptor; experiment: Antagonist activity at human mineralocorticoid receptor ligand binding domain expressed in human Huh7 cells after 16 hrs by luciferase reporter gene assay in presence of serum; type: cell-based, Huh-7
# [13] = target: T5, CYP1A2 (Homo sapiens, UniProt P05177); experiment: Inhibition of CYP1A2 (unknown origin) at 3 uM; type: ADME
# T5 sequence (P05177 whole entry): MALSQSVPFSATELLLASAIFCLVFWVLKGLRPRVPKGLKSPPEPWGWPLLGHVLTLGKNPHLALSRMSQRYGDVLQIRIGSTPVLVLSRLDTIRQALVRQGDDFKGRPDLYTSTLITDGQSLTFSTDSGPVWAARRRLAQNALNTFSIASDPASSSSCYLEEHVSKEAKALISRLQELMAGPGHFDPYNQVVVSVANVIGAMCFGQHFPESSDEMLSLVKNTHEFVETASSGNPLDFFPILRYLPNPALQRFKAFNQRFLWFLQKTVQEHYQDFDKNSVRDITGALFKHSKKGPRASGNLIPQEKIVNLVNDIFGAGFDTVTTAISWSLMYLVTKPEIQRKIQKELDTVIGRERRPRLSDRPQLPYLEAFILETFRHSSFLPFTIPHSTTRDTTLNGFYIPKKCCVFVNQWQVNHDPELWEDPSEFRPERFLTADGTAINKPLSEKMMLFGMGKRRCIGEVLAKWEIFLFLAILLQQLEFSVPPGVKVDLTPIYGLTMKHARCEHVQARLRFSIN
# [14] = target: CYP2C9 (Homo sapiens, UniProt P11712); experiment: Inhibition of CYP2C9 (unknown origin) at 3 uM; type: ADME
# CYP2C9, sequence (P11712 whole entry): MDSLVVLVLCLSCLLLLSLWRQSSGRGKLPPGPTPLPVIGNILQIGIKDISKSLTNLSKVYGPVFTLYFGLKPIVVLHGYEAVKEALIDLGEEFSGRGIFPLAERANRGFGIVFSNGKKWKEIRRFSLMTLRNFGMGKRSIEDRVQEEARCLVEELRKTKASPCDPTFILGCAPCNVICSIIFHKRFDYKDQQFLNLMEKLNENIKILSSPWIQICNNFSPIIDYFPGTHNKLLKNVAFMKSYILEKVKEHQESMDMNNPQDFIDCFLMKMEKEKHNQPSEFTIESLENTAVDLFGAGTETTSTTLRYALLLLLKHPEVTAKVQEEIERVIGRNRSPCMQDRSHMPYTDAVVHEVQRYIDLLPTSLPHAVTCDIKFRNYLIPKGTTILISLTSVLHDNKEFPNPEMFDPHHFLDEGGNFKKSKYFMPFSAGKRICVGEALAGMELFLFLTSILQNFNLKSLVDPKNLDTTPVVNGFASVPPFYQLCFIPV
# CYP2D6, sequence (P10635 whole entry): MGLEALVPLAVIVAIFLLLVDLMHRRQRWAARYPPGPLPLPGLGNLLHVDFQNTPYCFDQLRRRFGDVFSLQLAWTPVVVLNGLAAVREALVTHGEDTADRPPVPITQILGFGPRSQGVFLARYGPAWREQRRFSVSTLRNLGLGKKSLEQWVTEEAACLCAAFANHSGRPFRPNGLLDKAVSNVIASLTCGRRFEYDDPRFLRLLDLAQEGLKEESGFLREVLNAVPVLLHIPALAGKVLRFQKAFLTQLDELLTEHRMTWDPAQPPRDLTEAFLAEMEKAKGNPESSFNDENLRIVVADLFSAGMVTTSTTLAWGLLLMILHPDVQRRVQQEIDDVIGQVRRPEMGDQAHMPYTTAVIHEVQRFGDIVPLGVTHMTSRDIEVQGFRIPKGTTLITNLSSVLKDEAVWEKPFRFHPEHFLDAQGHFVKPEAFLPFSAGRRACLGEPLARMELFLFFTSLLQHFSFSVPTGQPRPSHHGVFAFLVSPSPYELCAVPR
# CYP3A4, sequence (P08684 whole entry, the tested form may be a part): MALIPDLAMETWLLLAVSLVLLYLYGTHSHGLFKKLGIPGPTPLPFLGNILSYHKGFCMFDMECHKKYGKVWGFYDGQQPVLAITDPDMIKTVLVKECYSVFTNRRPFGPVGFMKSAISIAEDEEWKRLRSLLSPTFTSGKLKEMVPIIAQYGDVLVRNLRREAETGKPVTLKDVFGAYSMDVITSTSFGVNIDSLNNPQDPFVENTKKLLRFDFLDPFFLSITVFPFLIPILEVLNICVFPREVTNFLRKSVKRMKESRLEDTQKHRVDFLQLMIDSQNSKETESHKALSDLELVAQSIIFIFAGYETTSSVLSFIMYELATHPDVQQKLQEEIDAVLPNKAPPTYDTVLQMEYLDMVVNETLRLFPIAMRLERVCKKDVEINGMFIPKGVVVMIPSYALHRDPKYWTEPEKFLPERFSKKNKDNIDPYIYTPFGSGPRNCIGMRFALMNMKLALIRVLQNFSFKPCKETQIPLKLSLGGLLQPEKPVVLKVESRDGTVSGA
SMILES,microsomal CLint [1] [µL/min/mg],logD [2],IC50 [3] [µM],other results
Cc1nccn1-c1ccc(CNS(=O)(=O)c2ccc(F)cc2F)cc1,28,2,2.09,–
COc1ccc(C#N)cc1-c1ccc(CNS(=O)(=O)c2c(C)noc2C)cc1,198,3.2,0.045,–
Cc1noc(C)c1S(=O)(=O)NCc1ccc(-c2cncc(C#N)c2)cc1,25,1.9,1.97,–
Cc1noc(C)c1S(=O)(=O)NCc1ccc(-n2ccnc2C)cc1,17,1.5,4.7,–
Cc1cn(-c2ccc(CNS(=O)(=O)c3cc(F)ccc3F)cc2)c(C)n1,27,2.3,0.191,IC50 [4]: 2.19 µM; inhibition at 3 µM [5]: < 5%; CLH(app) [6]: 9.6 µL/min; inhibition at 3 µM [7]: < 5%; IC50 [8]: > 10 µM; IC50 [9]: > 9.21 µM; IC50 [10]: 0.556 µM; Papp [11]: 15.4 ×10⁻⁶ cm/s; IC50 [12]: 1.31 µM; inhibition at 3 µM [13]: < 5%; Ki [3]: 0.113 µM; inhibition at 3 µM [14]: < 5%
Cc1ccccc1S(=O)(=O)NCc1ccc(-n2ccnc2C)cc1,53,2.3,1.21,–
Cc1noc(C)c1S(=O)(=O)NCc1ccc(-c2cccc(C#N)c2)cc1,–,3.3,0.04,–
Cc1nccn1-c1ccc(CNS(=O)(=O)c2cc(F)ccc2F)cc1,30,2.1,0.627,–
Cc1noc(C)c1S(=O)(=O)NCc1ccc(-c2cccc(NS(C)(=O)=O)c2)cc1,39,2.9,1.39,–
Cc1nccn1-c1ccc(CNS(=O)(=O)c2ccccc2Cl)cc1,41,2,0.342,–
Cc1nccn1-c1ccc(CNS(=O)(=O)c2ccccc2F)cc1,18,1.8,1.84,–
Cc1noc(C)c1S(=O)(=O)NCc1ccc(-c2cccc(C(N)=O)c2)cc1,–,2.4,2.03,–
Cc1noc(C)c1S(=O)(=O)NCc1ccc(-c2ccccc2)cc1,203,4.1,0.356,–
Cc1nccn1-c1ccc(CNS(=O)(=O)c2cc(F)ccc2F)cc1F,49,2.4,0.168,–
Cc1noc(C)c1S(=O)(=O)NCc1ccc(-c2cccnc2)cc1,86,2.4,1.53,–
Cc1noc(C)c1S(=O)(=O)NCc1ccc(-c2ccccc2)s1,267,3.9,0.609,–
Cc1cc(C)c(S(=O)(=O)NCc2ccc(-n3ccnc3C)cc2)c(C)c1,> 320,3.2,0.121,–
